Measured values reported in the NIST ThermoML archive (doi:10.1016/j.fluid.2004.09.013).
± gives the expanded uncertainty stated by the source.

Settings: for mass density: Fluid (supercritical or subcritical phases), Vibrating tube method; for vapor or sublimation pressure: Liquid

C/C=C\C [(Z)-2-butene]
Settings | mass density [kg/m3]
333.22 K, 14991 kPa | 598.72 ± 1.3
333.22 K, 19994 kPa | 606.12 ± 1.3
333.22 K, 24988 kPa | 612.8 ± 1.3
333.22 K, 30003 kPa | 618.94 ± 1.4
333.22 K, 34991 kPa | 624.59 ± 1.4
333.22 K, 40010 kPa | 629.87 ± 1.4
338.22 K, 1174 kPa | 565.5 ± 1.1
338.22 K, 4996 kPa | 574.54 ± 1.2
338.22 K, 9996 kPa | 584.64 ± 1.2
338.22 K, 14984 kPa | 593.34 ± 1.2
338.22 K, 19986 kPa | 601.06 ± 1.3
338.22 K, 25003 kPa | 608.03 ± 1.3
338.22 K, 29995 kPa | 614.37 ± 1.4
338.22 K, 34988 kPa | 620.2 ± 1.4
338.22 K, 39995 kPa | 625.64 ± 1.4
343.22 K, 1261 kPa | 558.56 ± 1.1
343.22 K, 4987 kPa | 568.03 ± 1.2
343.22 K, 9997 kPa | 578.77 ± 1.2
343.22 K, 14987 kPa | 587.91 ± 1.2
343.22 K, 19988 kPa | 595.98 ± 1.3
343.22 K, 25014 kPa | 603.24 ± 1.3
343.22 K, 30005 kPa | 609.78 ± 1.4
343.22 K, 34992 kPa | 615.82 ± 1.4
343.22 K, 40014 kPa | 621.42 ± 1.4
348.22 K, 1356 kPa | 551.46 ± 1.1
348.22 K, 4981 kPa | 561.37 ± 1.2
348.22 K, 10002 kPa | 572.81 ± 1.2
348.22 K, 14996 kPa | 582.44 ± 1.2
348.22 K, 19993 kPa | 590.86 ± 1.3
348.22 K, 25004 kPa | 598.39 ± 1.3
348.22 K, 30012 kPa | 605.19 ± 1.4
348.22 K, 34983 kPa | 611.41 ± 1.4
348.22 K, 39993 kPa | 617.18 ± 1.4
353.22 K, 1456 kPa | 544.16 ± 1.1
353.22 K, 5002 kPa | 554.62 ± 1.1
353.22 K, 14994 kPa | 576.89 ± 1.2
353.22 K, 19998 kPa | 585.7 ± 1.3
353.22 K, 24991 kPa | 593.51 ± 1.3
353.22 K, 29987 kPa | 600.55 ± 1.3
353.22 K, 34994 kPa | 606.99 ± 1.4
353.22 K, 40002 kPa | 612.94 ± 1.4
353.23 K, 10003 kPa | 566.75 ± 1.2
358.22 K, 1569 kPa | 536.68 ± 1.1
358.22 K, 4987 kPa | 547.6 ± 1.1
358.22 K, 9992 kPa | 560.57 ± 1.2
358.22 K, 15002 kPa | 571.3 ± 1.2
358.22 K, 19998 kPa | 580.5 ± 1.3
358.22 K, 24995 kPa | 588.63 ± 1.3
358.22 K, 29992 kPa | 595.93 ± 1.3
358.22 K, 34990 kPa | 602.57 ± 1.4
358.22 K, 40000 kPa | 608.7 ± 1.4
363.23 K, 1690 kPa | 528.95 ± 1.1
363.23 K, 4993 kPa | 540.42 ± 1.1
363.23 K, 9989 kPa | 554.28 ± 1.2
363.23 K, 15000 kPa | 565.61 ± 1.2
363.23 K, 19996 kPa | 575.23 ± 1.2
363.23 K, 25014 kPa | 583.72 ± 1.3
363.23 K, 29996 kPa | 591.25 ± 1.3
363.23 K, 34991 kPa | 598.13 ± 1.4
363.23 K, 40007 kPa | 604.46 ± 1.4
368.22 K, 1794 kPa | 520.86 ± 1.1
368.22 K, 4994 kPa | 533.05 ± 1.1
368.22 K, 9998 kPa | 547.94 ± 1.1
368.22 K, 15001 kPa | 559.86 ± 1.2
368.22 K, 20006 kPa | 569.97 ± 1.2
368.22 K, 24996 kPa | 578.78 ± 1.3
368.22 K, 30000 kPa | 586.63 ± 1.3
368.23 K, 35006 kPa | 593.73 ± 1.4
368.23 K, 40001 kPa | 600.21 ± 1.4
373.23 K, 1956 kPa | 512.69 ± 1.1
373.23 K, 5016 kPa | 525.44 ± 1.1
373.23 K, 10014 kPa | 541.44 ± 1.1
373.23 K, 15017 kPa | 554.07 ± 1.2
373.23 K, 20017 kPa | 564.64 ± 1.2
373.23 K, 25015 kPa | 573.81 ± 1.3
373.23 K, 30004 kPa | 581.92 ± 1.3
373.23 K, 35002 kPa | 589.24 ± 1.4
373.23 K, 39988 kPa | 595.91 ± 1.4
378.23 K, 2103 kPa | 504.11 ± 1
378.23 K, 5016 kPa | 517.48 ± 1.1
378.23 K, 9997 kPa | 534.7 ± 1.1
378.23 K, 15005 kPa | 548.12 ± 1.2
378.23 K, 19992 kPa | 559.18 ± 1.2
378.23 K, 24999 kPa | 568.75 ± 1.3
378.23 K, 29991 kPa | 577.18 ± 1.3
378.23 K, 34989 kPa | 584.74 ± 1.4
378.23 K, 39985 kPa | 591.64 ± 1.4
383.23 K, 2265 kPa | 495.17 ± 1
383.23 K, 4994 kPa | 509.13 ± 1.1
383.23 K, 9994 kPa | 527.89 ± 1.1
383.23 K, 15008 kPa | 542.15 ± 1.2
383.23 K, 20012 kPa | 553.81 ± 1.2
383.23 K, 24996 kPa | 563.74 ± 1.3
383.23 K, 29984 kPa | 572.46 ± 1.3
383.23 K, 34981 kPa | 580.28 ± 1.4
383.23 K, 40007 kPa | 587.41 ± 1.4
388.23 K, 2438 kPa | 485.86 ± 1
388.23 K, 4986 kPa | 500.47 ± 1.1
388.23 K, 9987 kPa | 520.91 ± 1.1
388.23 K, 14983 kPa | 536.02 ± 1.2
388.23 K, 19990 kPa | 548.28 ± 1.2
388.23 K, 24990 kPa | 558.67 ± 1.3
388.23 K, 30000 kPa | 567.77 ± 1.3
388.23 K, 34996 kPa | 575.85 ± 1.4
388.23 K, 39999 kPa | 583.17 ± 1.4
393.23 K, 2620 kPa | 476.09 ± 0.99
393.23 K, 4998 kPa | 491.49 ± 1

Settings | vapor or sublimation pressure [kPa]
335.93 K | 625.67 ± 4.1
344.91 K | 767.01 ± 5.7
345.17 K | 778.59 ± 5.8
353.84 K | 949.22 ± 6.1
364.75 K | 1196.6 ± 7.6
367.83 K | 1274.3 ± 8.2
376.36 K | 1508.8 ± 9.6
380.95 K | 1643.2 ± 10
382.47 K | 1703.7 ± 11
390.94 K | 1988 ± 13
